One compound from patent publication US11726088B2, “Sirtuin 4 (SIRT4) lipoamidase activity and uses thereof” (THE TRUSTEES OF PRINCETON UNIVERSITY, priority 2014, dated 2023) can be followed below.

One experiment has as its system PDH. As to the kind of experiment: PDH activity assay (immunocapture colorimetric) in fibroblasts stimulated with glutamax. Format: cell-based, human. Conditions: WT fibroblasts, glutamax 4 mM, versus unstimulated cells. As for the experimental part:
PDH activity assay. The activity of the PDHC in MRC5 derivate cell lines was measured using the Pyruvate Dehydrogenase Enzyme Activity Microplate Assay Kit (Abcam, cat. #ab109902) according to manufacturer's instructions. 1000 μg/well of cultured cell extract from each line being tested was used as input for PDHC binding, and 5 μg/well of pyruvate dehydrogenase from porcine heart (Sigma-Aldrich, cat. #P7032) used as a positive control for the assay. PDH activity was measured by reduction of NAD+ to NADH, coupled to the reduction of a reporter dye to yield a colored reaction product with an increase in absorbance at 450 nm at room temperature. […] Statistical significance was assessed by one-way ANOVA in GraphPad Prism 5. […]
We next investigated a cellular condition known to inhibit PDH activity, and examined the involvement of SIRT4 in this process. […] In agreement with these observations, we detected elevated expression of endogenous SIRT4 in cells stimulated with glutamax (FIG. 3J). To validate the dependence of PDH inhibition on SIRT4 activity, we first measured PDH activity in SIRT4 OE cells stimulated with glutamax. […] It remains to be determined whether residual SIRT4 still functions in these knocked-down lines to decrease PDH activity following glutamax stimulation, or another yet to be identified PDH inhibition mechanism is at play. […]

For experiment [1], the system named is DLAT lipoyl (K132 and K259). As to the kind of experiment: DLAT lipoyl levels by PRM quantification in glutamax-stimulated cells. Format: cell-based, human. Conditions: glutamax stimulation, within 48 hr. As for the experimental part:
Lipoyl-lysine SRM assay. The relative abundance of lipoyl-lysine-containing peptides identified from immunoisolated, in-gel digested DLAT (described above) was measured in mitochondria lysates using a selected reaction monitoring (SRM) full-scan tandem mass spectrometry assay. Purified mitochondria were isolated from MRC5 stable cell lines expressing EGFP, SIRT4-EGFP, and SIRT4-targeting shRNA (described above). Mitochondria pellets were lysed by agitation and bath sonication in 100 μL of hot (95° C.) buffer containing 0.1 M ammonium bicarbonate, 5 mM tris(2-carboxyethyl)phosphine, 1 mM nicotinamide, and 0.1% RapiGest. Protein concentration was determined using the Bradford reagent (Sigma). […] Eluates from the same sample were pooled and concentrated to near-dryness, diluted to 8 μL, and half were analyzed by an LC-SRM-MS/MS assay on an LTQ Orbitrap Velos mass spectrometry (Thermofisher Scientific). […] At least four co-eluting XICs (dot-product score of ≥0.95) were used for peak area quantification. […] Peak areas were summed across XICs, exported to Excel, and normalized across biological replicates (n=3-6) using the average chromatographic precursor intensity calculated by RawMeat (Vast Scientific, Inc). Statistical significance was determined by unpaired, two-tailed t-tests in Microsoft Excel. […]

Peptide text beside a SMILES is read from it.

As for `C[C@H](N)C(=O)N[C@@H](CCC(N)=O)C(=O)O` [glutamax] (H-Ala-Gln-OH), the PDH activity entry in the experiment with PDH is “significant time-dependent decrease”. The DLAT lipoyl levels result in experiment [1] is recorded as “decrease”.
